We go through 2 compounds from patent US20110280940A1, “Di-Vanilloyl And Tri-Vanilloyl Derivatives For Use In Anti-Cancer Therapy” (priority 2008, published 2011).

Assay [1] has as its system A549 non-small-cell-lung cancer cell line. Kind of assay: Cellular imaging (quantitative videomicroscopy), global growth ratio, A549. Format: cell-based. Particulars: Homo sapiens, 72 h, read-out: Global Grow Ratio Treated/Ct (GGR T/Ct) determined by Video Quantitative microscopy, A549. An excerpt: As the MTT test is based on the mitochondria functions, we also investigated the effects of the di- and tri-vanilloyl derivatives according to the invention on cell proliferation, migration and morphology by means of a cellular imaging approach (Debeir et al., Cytometry 60:29-40, 2004; Debeir et al., IEEE Trans Med Imaging 24:697-711, 2005) either in the human U373-MG glioma cell line, which is apoptosis-resistant but autophagy-sensitive (Lefranc F et al., Neurosurgery 2008) and in the human A549 non-small-cell-lung cancer cell line, which is apoptosis-resistant and autophagy-resistant (Mijatovic T et al., Neoplasia 2006, May; 8(5):402-12).
Investigations have also been performed in human normal fibroblasts (WS1 and WI38—see Tables 4 and 5). Cellular imaging relied on the use of computer-assisted phase-contrast microscopy making possible to film the behaviour of living cells in culture dishes for several days.
Cells were seeded in a 25-cm^2 flask at a low density, treated or not with the vanilloyl-esters invention (at a concentration of 50 μM) and filmed thereafter for a period of 72 h. The experiment was conducted in quadruplicates (in duplicates for DLT-95 compounds).
The behaviour of the cells, in terms of morphology, growth and death were thus investigated. The effect on the overall growth was measured by counting the number of cells on the first (0 h) and the last image (72 h) of each film. The global growth ratio (GGR) was then deduced by dividing the number of cells on the last image by the number of cells on the first image. The ratio GGRtreated cells/GGRcontrol cells, was further calculated thereby obtaining a value that describes the effect of compounds of the present invention on the overall cell growth. The methodology is fully described and validated in Debeir et al., 2008, Exp Cell Res 314:2985-2998 and Mathieu et al., 2009, J Cell Mol Med, Feb. 20, 2009.
Illustrative pictures (time=0 h and 72 h) of glioblastoma and normal fibroblast cell line left untreated or treated with poly-vanillic compounds according to the invention (50 μM) are provided in FIG. 1 (U373 glioblastoma) and FIG. 2 (normal fibroblasts). The GGR parameter analyses confirmed the marked impairment of cell growth in both cancer cell lines of the poly-vanillic compounds according to the invention (Table 5).

For the next assay, the target named is T1, CDK5/p25 (Homo sapiens, UniProt Q00535).
T1 construct: made in house
Description: Kinase activity assay, CDK5. Format: biochemical. Particulars: 10 μM, 1% DMSO, 15 μM ATP; residual activity. Here is the method:
Buffer A: 10 mM MgCl2, 1 mM EGTA, 1 mM DTT, 25 mM Tris-HCl pH 7.5, 50 μg heparin/ml. Buffer C: 60 mM β-glycerophosphate, 15 mM p-nitrophenylphosphate, 25 mM Mops (pH 7.2), 5 mM EGTA, 15 mM MgCl2, 1 mM DTT, 1 mM sodium vanadate, 1 mM phenyl phosphate.
Kinase activities were assayed in Buffer A or C, at 30° C., at a final ATP concentration of 15 μM. Blank values were subtracted and activities expressed in % of the maximal activity, i.e. in the absence of inhibitors. Controls were performed with appropriate dilutions of DMSO.
CDK1/cyclin B (M phase starfish oocytes, native), CDK2/cyclin A, CDK2/cyclin E, CDK5/p25 and CDK7/cyclin H (human, recombinant) were prepared as previously described (Leclerc et al., 2001, J. Biol. Chem. 2001, 276, 251-260; Bach et al., 2005, J Biol Chem 280: 31208-31219). Their kinase activity was assayed in buffer C, with 1 mg histone H1/ml, in the presence of 15 μM [gamma-^33P] ATP (3,000 Ci/mmol; 10 mCi/ml) in a final volume of 30 μl. After 30 min incubation at 30° C., 25 μl aliquots of supernatant were spotted onto 2.5×3 cm pieces of Whatman P81 phosphocellulose paper, and, 20 sec later, the filters were washed five times (for at least 5 min each time) in a solution of 10 ml phosphoric acid/liter of water. The wet filters were counted in the presence of 1 ml ACS (Amersham) scintillation fluid.

T1 sequence (Q00535 whole entry): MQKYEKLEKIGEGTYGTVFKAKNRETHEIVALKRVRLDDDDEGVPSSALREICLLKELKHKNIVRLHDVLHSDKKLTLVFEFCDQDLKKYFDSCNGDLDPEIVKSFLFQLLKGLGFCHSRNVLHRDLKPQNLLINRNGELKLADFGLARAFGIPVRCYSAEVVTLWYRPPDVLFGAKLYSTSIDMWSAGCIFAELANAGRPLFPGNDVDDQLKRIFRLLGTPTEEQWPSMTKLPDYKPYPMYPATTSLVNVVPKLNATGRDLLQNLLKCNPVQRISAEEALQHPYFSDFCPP
T1 sequence (Q15078 99-307 partner limits assumed): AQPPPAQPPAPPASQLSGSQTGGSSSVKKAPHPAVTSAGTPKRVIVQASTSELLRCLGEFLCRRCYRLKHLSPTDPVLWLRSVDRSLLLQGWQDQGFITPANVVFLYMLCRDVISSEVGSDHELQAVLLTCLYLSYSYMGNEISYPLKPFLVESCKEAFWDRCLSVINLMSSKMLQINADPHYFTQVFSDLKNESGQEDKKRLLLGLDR

Consider `COc1cc(C(=O)OCCCCCCOC(=O)c2ccc(O)c(OC)c2)ccc1O` [DLT11, Hexane-1,6-diyl bis-(4-hydroxy-3-methoxybenzoate)], for which, in assay [1], the activity at 50 µM came to 20%.

With `COc1cc(C(=O)OCCOC(=O)c2ccc(O)c(OC)c2)ccc1O` [DLT1, Ethane-1,2-diyl bis-(4-hydroxy-3-methoxybenzoate)], in assay [1], the activity at 50 µM came to 50%. The “% ENZYMATIC ACTIVITY, CDK5” value on CDK5/p25 is on record as 87%.
